The values that follow come from paper PMC12311259, “Antifibrotic effects of specific targeting of the 5‐hydroxytryptamine 2B receptor (5‐HT2BR) in murine models and ex vivo models of scleroderma skin” (Arthritis & Rheumatology (Hoboken, N.j.), 2025).

Structures are written as SMILES. pIC50: −log10 of the molar value. Entries after “also recorded” stand apart in the source; their conditions may differ.

The target in series [1] is T1, Adrenergic α1B (hu) (Homo sapiens, UniProt P35368).
T1 construct: Eurofins Panlabs 302060
As to the kind of experiment: Functionality assay, IP1, Eurofins Panlabs 302060. It is filed as cell-based. The source says: (§1) Effects were considered significant if AM1476's mean value was three or more SDs above the vehicle control mean in the agonist assay or three or more SDs below the positive control agonist (5‐nM α‐methylserotonin) mean in the antagonist assay. AM1476 was screened for selectivity against approximately 200 targets using a Eurofins Panlabs Spectrum screen panel including enzymatic and receptor binding assays.

For series [2], the target named is T2, Serotonin (5-Hydroxytryptamine) 5-HT1A (hu) (Homo sapiens, UniProt P08908).
T2 construct: Eurofins Panlabs 271110
The series can be described thus: Receptor binding, Eurofins Panlabs 271110.
Excerpt: as §1

Series [3] has as its system approximately 200 targets. The series can be described thus: Eurofins Panlabs Spectrum screen selectivity panel (enzymatic and receptor binding assays). Particulars: no binding defined as <50% inhibition at 10 μM.
Excerpt: as §1

Series [4] deals with Bleomycin-induced pulmonary fibrosis. The series can be described thus: Bleomycin-induced pulmonary fibrosis in mice. Format: in vivo, mouse. How it is done: Pulmonary fibrosis was induced by a single intratracheal instillation of bleomycin (25 μg in 50 μL of 0.9% NaCl).[12] Treatment was initiated at two weeks after the first injection of bleomycin. AM1476 was administered orally at 1, 3, or 10 mg/kg once daily. Solvent (double‐distilled water) was used as a control, and nintedanib at 30 mg/kg orally every day (qd) was included as a comparator. The outcome was analyzed at two and four weeks after the first injection of bleomycin. Mice injected with 0.9% NaCl, the vehicle of bleomycin, served as nonfibrotic controls. Eight mice per group were analyzed.
Skin samples were fixed in 4% formalin for six hours and embedded in paraffin. Five‐micrometer sections were cut and stained with hematoxylin and eosin (H&E). The dermal thickness was quantified on H&E‐stained sections using images captured with a light microscope (Nikon eclipse 80i) at 100‐fold magnification by manually measuring the distance between the epidermal‐dermal junction and the dermal‐subcutaneous fat junction at four sites per mouse.[15], [16] For lung samples, the whole left lung was fixed in 4% formalin for six hours and embedded in paraffin. Five‐micrometer sections were cut and stained with trichrome and sirius red. Histologic readouts were evaluation of the fibrotic area as the percentage of the total lung area in sirius red–stained sections (two sections per mouse) and quantification of pulmonary changes using the Ashcroft score (four sections per mouse).[17], [18]
The amount of collagen protein in skin and lung samples was determined by hydroxyproline assay.[19], [20] After digestion in 6 M HCl for three hours at 120°C, the pH of the samples was adjusted to a pH range of 6–7 with 6 M NaOH. Afterward, 0.06 M chloramine T was added to each sample and incubated for 20 minutes at room temperature. Next, 3.15 M perchloric acid and 20% p‐dimethylaminobenzaldehyde were added, and samples were incubated for an additional 20 minutes at 60°C. The absorbance was determined at 557 nm with a Spectra MAX 190 microplate spectrophotometer. Absolute values were determined using a standard curved generated with type I collagen (Sigma‐Aldrich).

The conditions of series [5]: cGvHD mice, 28 days repeated oral once daily administration.
Experimental: After repeated oral administration for 28 days, whole blood was collected from each treatment group 15 minutes, 30 minutes, and 1, 2, 4, 6, 8, and 24 hours after a final morning dose (two animals were used for each time point), and plasma was separated from blood within 30 minutes.
For series [6], the target named is T3, 5-HT2CR (Homo sapiens, UniProt P28335).
T3 construct: 355200 (GTPγS); host or cells: CHO-K1
As to the kind of experiment: Functionality assay, [35S]GTPγS binding. Format: biochemical. The conditions noted are these: inhibition of 5-HT (100 nM) induced [35S]GTPγS binding; read-out: IC50, antagonistic activity, human 5-HT2C. How it is done: The binding profile of AM1476 was evaluated for binding to human 5‐HT2AR, 5‐HT2BR, and 5‐HT2CR in radioligand binding assays using Chinese hamster ovary (CHO‐K1) cells overexpressing human receptors (in vitro assays 271650, 271700, and 271800; Eurofins Panlabs Discovery). AM1476 was evaluated at 0.1, 1, 10, 100, 1,000, and 10,000 nM (5‐HT2BR) or at 1, 10, 100, 1,000, and 10,000 nM (5‐HT2AR and 5‐HT2CR). Human 5‐HT2AR and 5‐HT2BR functionality was measured with homogeneous time‐resolved fluorescence quantification of IP1 accumulation in CHO‐K1 cells (in vitro assays 355250 and 355260). Compounds creating a ≥50% inhibition of 5‐HT (5 nM) induced fluorescence response specified receptor antagonist activity. 5‐HT2CR functionality was assessed with [35S] GTPγS for quantification of bound GTPγS. Compounds creating a ≥50% inhibition of 5‐HT (100 nM) induced [35S] GTPγS binding response specified receptor antagonist activity (in vitro assay 355200). AM1476 was evaluated at 0.1, 0.3, 1, 3, 10, 30, and 300 nM (5‐HT2BR) or 1, 10, 100, 1,000, and 10,000 nM (5‐HT2AR and 5‐HT2CR). […] Mouse 5‐HT2BR functionality was measured in a calcium influx assay (Charles River) in CHO‐KI cells expressing the mouse 5‐HT2BR using a calcium sensitive dye and a fluorescence imaging plate reader (FLIPRTETRA) instrument. AM1476 was evaluated at 0.3, 1, 3, 10, 30, 100, 300, and 1,000 nM.
For orientation: GTPγS is a poorly hydrolysed GTP analogue; its binding reports G protein activation.

Series [7] deals with T4, Uptake, Dopamine (hu) (Homo sapiens, UniProt Q01959).
T4 construct: Eurofins Panlabs 316010
The series can be described thus: Functionality assay, Uptake, Eurofins Panlabs 316010. It is filed as cell-based.
Excerpt: as §1

Series [8] concerns the target T5, Histamine H1 (hu) (Homo sapiens, UniProt P35367).
T5 construct: Eurofins Panlabs 313200
As to the kind of experiment: Functionality assay, GTPγS Binding, Eurofins Panlabs 313200. Format: biochemical.
Excerpt: as §1

Series [9] concerns the target T6, human 5-HT2BR (Homo sapiens, UniProt P41595).
T6 construct: 355260 (IP1); host or cells: CHO-K1
The series can be described thus: Functionality assay, HTRF quantification of IP1 accumulation in CHO-K1 cells. Format: cell-based. On the technique in general: Time-resolved FRET reads energy transfer from a long-lived donor to a nearby acceptor.

For series [10], the system named is Sodium Channel, Site 2 (gp). The series can be described thus: Functionality assay, Eurofins Panlabs 475010. It is filed as biochemical, guinea pig.
Excerpt: as §1

In series [11] the target is T7, Serotonin 5-HT6 (hu) (Homo sapiens, UniProt P50406).
T7 construct: 318000 (adenylyl cyclase)
The series can be described thus: Functionality assay, Adenylyl Cyclase, Eurofins Panlabs 318000. Format: cell-based.
Excerpt: as §1

For series [12], the target named is T8, Uptake, Norepinephrine (hu) (Homo sapiens, UniProt P23975).
T8 construct: Eurofins Panlabs 302000
The series can be described thus: Functionality assay, Uptake, Eurofins Panlabs 302000. It is filed as cell-based.
Excerpt: as §1

Setting [13] is: all doses (1, 3, 10 mg/kg orally once daily), vs vehicle-treated bleomycin-challenged mice.

T6 sequence (P41595 whole entry): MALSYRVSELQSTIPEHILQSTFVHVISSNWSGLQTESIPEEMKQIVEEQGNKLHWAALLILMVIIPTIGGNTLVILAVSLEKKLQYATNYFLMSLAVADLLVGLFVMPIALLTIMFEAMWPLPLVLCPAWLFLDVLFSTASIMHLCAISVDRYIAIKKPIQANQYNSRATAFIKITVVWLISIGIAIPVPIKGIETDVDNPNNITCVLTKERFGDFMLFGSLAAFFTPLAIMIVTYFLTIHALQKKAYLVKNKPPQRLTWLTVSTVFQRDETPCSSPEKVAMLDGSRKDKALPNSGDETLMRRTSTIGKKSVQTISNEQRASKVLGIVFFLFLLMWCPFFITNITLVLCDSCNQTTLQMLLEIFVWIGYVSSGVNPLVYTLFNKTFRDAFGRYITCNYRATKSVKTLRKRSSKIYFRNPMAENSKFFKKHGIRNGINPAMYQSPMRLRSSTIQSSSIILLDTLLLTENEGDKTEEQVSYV
T1 sequence (P35368 whole entry): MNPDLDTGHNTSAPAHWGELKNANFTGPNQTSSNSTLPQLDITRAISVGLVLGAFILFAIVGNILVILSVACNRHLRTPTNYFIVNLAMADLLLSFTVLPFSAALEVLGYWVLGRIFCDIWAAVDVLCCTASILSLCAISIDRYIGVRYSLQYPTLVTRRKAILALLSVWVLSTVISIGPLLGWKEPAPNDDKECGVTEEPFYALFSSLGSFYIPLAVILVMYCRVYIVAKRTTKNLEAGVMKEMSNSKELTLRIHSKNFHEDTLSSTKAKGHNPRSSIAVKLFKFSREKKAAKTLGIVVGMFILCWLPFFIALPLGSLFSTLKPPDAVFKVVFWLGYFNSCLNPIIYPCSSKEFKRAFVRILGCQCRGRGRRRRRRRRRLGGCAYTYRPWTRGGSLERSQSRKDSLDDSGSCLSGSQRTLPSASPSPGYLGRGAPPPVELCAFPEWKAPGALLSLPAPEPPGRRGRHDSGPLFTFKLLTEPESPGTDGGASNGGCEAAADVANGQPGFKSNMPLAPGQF
T7 sequence (P50406 whole entry): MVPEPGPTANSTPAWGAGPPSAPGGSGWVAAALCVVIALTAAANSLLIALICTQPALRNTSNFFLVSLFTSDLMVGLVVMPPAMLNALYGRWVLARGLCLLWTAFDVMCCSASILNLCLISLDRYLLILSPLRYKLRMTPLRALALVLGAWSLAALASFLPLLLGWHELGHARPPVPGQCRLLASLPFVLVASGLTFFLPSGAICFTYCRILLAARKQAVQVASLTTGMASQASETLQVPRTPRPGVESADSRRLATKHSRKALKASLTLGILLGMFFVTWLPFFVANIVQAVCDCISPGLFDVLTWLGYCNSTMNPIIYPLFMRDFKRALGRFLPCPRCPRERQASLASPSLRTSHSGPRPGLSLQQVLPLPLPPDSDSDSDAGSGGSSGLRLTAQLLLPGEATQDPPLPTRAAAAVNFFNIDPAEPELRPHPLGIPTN
T5 sequence (P35367 whole entry): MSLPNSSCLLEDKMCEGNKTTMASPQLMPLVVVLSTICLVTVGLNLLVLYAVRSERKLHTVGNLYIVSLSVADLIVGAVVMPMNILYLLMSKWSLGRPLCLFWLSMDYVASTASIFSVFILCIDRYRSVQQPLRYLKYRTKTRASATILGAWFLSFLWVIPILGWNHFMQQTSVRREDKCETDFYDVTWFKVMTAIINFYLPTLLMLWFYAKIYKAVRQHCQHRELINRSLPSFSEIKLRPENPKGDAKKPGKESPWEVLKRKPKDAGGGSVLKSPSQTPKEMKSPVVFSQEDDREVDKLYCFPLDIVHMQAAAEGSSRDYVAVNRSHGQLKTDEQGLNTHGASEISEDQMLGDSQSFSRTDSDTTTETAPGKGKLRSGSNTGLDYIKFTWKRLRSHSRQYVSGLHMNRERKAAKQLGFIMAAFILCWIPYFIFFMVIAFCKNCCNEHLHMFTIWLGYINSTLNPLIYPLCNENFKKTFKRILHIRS
T3 sequence (P28335 33-458): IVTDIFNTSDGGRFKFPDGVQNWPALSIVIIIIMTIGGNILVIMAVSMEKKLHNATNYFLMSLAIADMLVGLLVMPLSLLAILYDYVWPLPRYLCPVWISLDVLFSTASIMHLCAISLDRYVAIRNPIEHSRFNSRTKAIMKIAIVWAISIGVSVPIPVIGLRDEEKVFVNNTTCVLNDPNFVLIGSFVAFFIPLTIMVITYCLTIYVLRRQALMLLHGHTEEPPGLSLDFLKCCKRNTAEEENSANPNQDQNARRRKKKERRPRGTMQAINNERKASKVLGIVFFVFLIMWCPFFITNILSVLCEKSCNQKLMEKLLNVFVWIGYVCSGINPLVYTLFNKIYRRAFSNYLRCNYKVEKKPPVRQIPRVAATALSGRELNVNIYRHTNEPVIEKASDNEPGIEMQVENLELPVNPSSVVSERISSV
T4 sequence (Q01959 whole entry): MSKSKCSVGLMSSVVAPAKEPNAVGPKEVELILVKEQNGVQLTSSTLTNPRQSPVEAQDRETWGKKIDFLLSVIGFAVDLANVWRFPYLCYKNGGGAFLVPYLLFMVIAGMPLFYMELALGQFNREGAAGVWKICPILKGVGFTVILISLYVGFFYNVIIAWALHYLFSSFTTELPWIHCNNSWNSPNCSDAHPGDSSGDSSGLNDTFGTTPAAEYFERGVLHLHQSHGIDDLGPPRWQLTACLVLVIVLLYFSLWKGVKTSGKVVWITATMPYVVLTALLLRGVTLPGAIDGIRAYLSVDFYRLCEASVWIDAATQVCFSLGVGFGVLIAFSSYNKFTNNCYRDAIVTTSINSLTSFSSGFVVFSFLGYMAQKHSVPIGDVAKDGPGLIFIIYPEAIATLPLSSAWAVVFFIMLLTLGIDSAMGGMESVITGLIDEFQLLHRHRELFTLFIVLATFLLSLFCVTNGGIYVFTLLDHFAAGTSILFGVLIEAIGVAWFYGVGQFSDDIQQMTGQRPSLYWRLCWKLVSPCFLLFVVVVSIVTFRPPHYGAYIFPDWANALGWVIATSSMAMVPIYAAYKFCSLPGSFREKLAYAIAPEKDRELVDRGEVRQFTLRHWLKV
T2 sequence (P08908 whole entry): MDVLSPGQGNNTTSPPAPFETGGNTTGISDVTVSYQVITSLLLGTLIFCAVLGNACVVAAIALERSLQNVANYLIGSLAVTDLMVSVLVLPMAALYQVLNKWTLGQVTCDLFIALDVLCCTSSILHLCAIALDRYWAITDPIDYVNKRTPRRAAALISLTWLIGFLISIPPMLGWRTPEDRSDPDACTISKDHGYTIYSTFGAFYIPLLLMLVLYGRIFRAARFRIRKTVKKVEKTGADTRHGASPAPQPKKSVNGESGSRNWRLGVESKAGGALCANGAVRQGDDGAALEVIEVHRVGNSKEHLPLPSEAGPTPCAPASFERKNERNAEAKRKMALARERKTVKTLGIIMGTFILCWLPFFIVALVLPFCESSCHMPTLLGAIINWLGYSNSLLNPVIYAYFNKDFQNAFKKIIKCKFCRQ
T8 sequence (P23975 whole entry): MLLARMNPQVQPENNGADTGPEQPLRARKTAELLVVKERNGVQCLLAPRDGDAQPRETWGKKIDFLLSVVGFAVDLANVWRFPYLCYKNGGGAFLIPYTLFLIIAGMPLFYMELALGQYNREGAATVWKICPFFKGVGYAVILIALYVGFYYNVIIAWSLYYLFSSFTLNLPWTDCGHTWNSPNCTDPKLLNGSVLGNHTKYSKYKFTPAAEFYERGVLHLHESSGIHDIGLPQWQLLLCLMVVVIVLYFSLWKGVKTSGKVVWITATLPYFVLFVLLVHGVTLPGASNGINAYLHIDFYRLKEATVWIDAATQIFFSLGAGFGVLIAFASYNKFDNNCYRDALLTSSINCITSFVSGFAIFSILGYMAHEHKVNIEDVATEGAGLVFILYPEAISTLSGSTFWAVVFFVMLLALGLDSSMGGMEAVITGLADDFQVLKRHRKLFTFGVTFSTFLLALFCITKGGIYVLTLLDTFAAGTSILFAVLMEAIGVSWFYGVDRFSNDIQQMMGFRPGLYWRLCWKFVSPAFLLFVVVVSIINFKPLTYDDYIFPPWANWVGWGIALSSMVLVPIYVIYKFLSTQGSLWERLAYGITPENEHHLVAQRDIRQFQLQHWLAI

A word on the IC50: it is the midpoint of a concentration-inhibition curve. The low end stands for inhibition by little substance, the high end for a need for much substance. What is called % Inhibition is the drop in the measured response relative to a control, in per cent. A word on the pIC50: it is the IC50 on a negative log10 scale, so that one unit is a factor of ten. Regarding `C[C@@H]1CN(C(=N)N)N=C1c1ccc(F)cc1O` [AM1476], the IC50 was 9.53 µM in series [1]; over 30 µM in series [7]; 28 µM in series [8]; over 30 µM in series [10]; 4.55 µM in series [11]; 3.78 µM in [12]. Also, the “agonistic activity, Adrenergic α1B” value in [1] (at 30 µM) was “No significant agonistic activity at 30 µM”. Further, the “% Inhibition at 10 µM, 5-HT1A (hu)” value in [2] is 16%. Besides, the “binding to approximately 200 other targets” value in series [3] is “no binding to the majority of targets”. Further, the “antifibrotic effects relative to comparator, across the different readouts” value in series [4] (AM1476 1, 3, 10 mg/kg orally once daily) is “comparable to those of nintedanib”. Moreover, the Ashcroft scores entry in series [4] (setting [13]) is listed as “decreases”. The collagen-covered area entry in series [4] (setting [13]) is “decreases”. The hydroxyproline content result in series [4] (setting [13]) is reported as “decreases”. Moreover, in series [5], the “level of systemic exposure (free plasma concentration) vs IC50 of mouse 5-HT2BR antagonistic activity” value is “exceeded the IC50”. Moreover, the pIC50 in series [6] was 5.51; in series [9] (inhibition of 5-HT (5 nM) induced IP1 response, CHO-K1, read-out: IC50, antagonistic activity, human 5-HT2B) it was 8.24. Also, the “agonistic activity, Histamine H1” value in series [8] (at 30 µM) is “No significant agonistic activity at 30 µM”. Also, the “agonistic activity at 5-HT2BR” value in [9] is reported as “devoid of agonistic activity; also recorded: no agonism”. Also, the “agonistic activity, Sodium Channel, Site 2” value in [10] (at 30 µM) is reported as “No significant agonistic activity at 30 µM”. For the same compound, the “agonistic activity, Serotonin 5-HT6” value in series [11] (at 30 µM) is on record as “No significant agonistic activity at 30 µM”.
